Data set [1] is described as follows: Measurement of turbidity in BSA. Particulars: BSA 1%, peptide 50 μM, absorbance at 600 nm. The format is physicochemical. As for the experimental part: The solutions were evaluated for their absorbance at a wavelength of 600 nm by using a spectrophotometer (DU640, manufactured by Beckman).
Another data set concerns Vero. Kind of data set: Luciferase plasmid introduction versus phosphatidyl serine translocation. The format is cell-based, monkey. The text has this: (§1) A cell line established from monkey kidney (Vero cell) and a human bladder cancer cell (T24 cell) purchased from American Type Culture Collection (ATCC) and human lung cancer cell (A549 cell) purchased from Dainippon Pharmaceutical were inoculated on a 24 well culture plate (manufactured by NALGEN NUNC) at 1×10^5 cells/well. Vero cell and A549 cell were cultivated in DMEM (manufactured by Life Technologies Oriental) supplemented with 10% fetal bovine serum (hereinafter referred to as FBS, manufactured by NICHIREI), and T24 cell was cultivated in McCoy's 5a (manufactured by Life Technologies Oriental) supplemented with 10% FBS in 5% CO2 atmosphere at 37° C. for 24 hours. […] The luciferase activity expressed in the cell was then measured by the method instructed in luciferase assay system (manufactured by Promega). […] 20 μL of this cell lysate and 100 μL of the Luciferase Assay Reagent II attached to the kit was added to a fluorescence-measuring plate (Microlite™ 1 plate, manufactured by Dynatech), and after mixing, fluorescence was measured for 1 second by using a multilabel counter (ARVO™ SY1420 MULTILABEL COUNTER, manufactured by Wallac Beltold. […]

The nature of data set [2]: Affinity by surface plasmon resonance (Biacore 2000), flow cell 2. In kind it is binding. The note with it: SPR, HPA chip, 0.1 mg/mL BSA; compared with flow cell 1. On the procedure:
The specific affinity of the peptide for phosphatidyl serine was evaluated by means of surface plasmon resonance (SPR) using Biacore 2000 (manufactured by Biacore). To be more specific, phosphatidyl choline was immobilized on flow cell 1, and 50% of phosphatidyl serine and 50% of phosphatidyl choline were immobilized on flow cell 2 of HPA chip (manufactured by Biacore), and ability of the peptide to bind to the phospholipid was evaluated in the presence of 0.1 mg/mL BSA to thereby evaluate the affinity.

The subject of another data set is A549. The data set can be described thus: Luciferase plasmid introduction versus phosphatidyl serine translocation. In kind it is cell-based, human.
Source text: as §1

A further data set deals with T24. Described as above. In kind it is cell-based, human.
Source text: as §1

Another data set deals with Vero cell. The data set can be described thus: Introduction of FITC-labeled oligonucleotide, fluorescence microscopy. The format is cell-based, monkey. Particulars: 300 nM FITC-labeled oligonucleotide, 2.5 μM peptide. On the procedure:
Vero cell was inoculated in the well of a chamber slide (Lab-Tek II chamber slide, size 4 well, manufactured by NALGEN NUNC) at a rate of 1×10^5 cells/well, and the cells were cultivated in DMEM supplemented with 10% FBS in 5% CO2 atmosphere at 37° C. for 24 hours. After removing the medium, opti-MEM containing 300 nM FITC-labeled oligonucleotide prepared in Example 6 and 2.5 μM of the peptide of SEQ ID NO:1 prepared in Example 1 was added, and the cultivation was continued for 4 hours. The medium was replaced with DMEM supplemented with 10% FBS, and the cultivation was continued in 5% CO2 atmosphere at 37° C. for another 24 hours. After washing the cell with PBS, the cells were fixed by using PBS containing 4% paraformaldehyde, and accumulation of FITC-labeled oligonucleotide in the cell nucleus was confirmed by using a fluorescence microscope (AH-3, manufactured by Olympus). […] On the other hand, accumulation of FITC-labeled oligonucleotide in the cell was not confirmed in the absence of the peptide of SEQ ID NO:1.

From patent publication US20040171795A1, “Novel peptides” (priority 2000, published 2004) come the findings set out here.

As to “SEQ ID NO: 1: peptide having the amino acid sequence of SEQ ID NO:1, made by solid phase synthesis (TRYLRIHPRSWVHQIALRLRYLRIHPRSWVHQIALRS; synthetic peptide using an automatic peptide synthesizer)”, the “OD 600” value in data set [1] is listed as 0.03. For the same substance, the Luciferase activity in the data set with Vero is 2.5 × 10^6 cps/mg protein; in the data set on A549, 8.7 × 10^4 cps/mg protein; with T24, 7.8 × 10^3 cps/mg protein. For the same substance, the “binding to flow cell 2 (50% phosphatidyl serine, 50% phosphatidyl choline)” value in data set [2] is reported as “stronger”. Also, the “accumulation of FITC-labeled oligonucleotide in the cell nucleus” value in the data set with Vero cell is listed as “FITC-labeled oligonucleotide was accumulated in the cell nucleus”.
